Reference: US9365605B2, “Cyclic nucleotide analogs” (priority 2010, dated 2016)
Like-named read-outs stand apart in the source and are kept apart here.

Tested on: Huh-7 cells containing the self-replicating, subgenomic HCV replicon with a stable luciferase (LUC) reporter
Assay: HCV replicon assay (luciferase reporter, Bright-Glo)
Assay type: cell-based
Experimental: Huh-7 cells containing the self-replicating, subgenomic HCV replicon with a stable luciferase (LUC) reporter were cultured in Dulbecco's modified Eagle's medium (DMEM) containing 2 mM L-glutamine and supplemented with 10% heat-inactivated fetal bovine serum (FBS), 1% penicillin-streptomyocin, 1% nonessential amino acids, and 0.5 mg/mL G418.
Determination of 50% inhibitory concentration (EC50) of compounds in HCV replicon cells were performed by the following procedure. On the first day, 5,000 HCV replicon cells were plated per well in a 96-well plate. On the following day, test compounds were solubilized in 100% DMSO to 100× the desired final testing concentration. Each compound was then serially diluted (1:3) up to 9 different concentrations. Compounds in 100% DMSO are reduced to 10% DMSO by diluting 1:10 in cell culture media. The compounds were diluted to 10% DMSO with cell culture media, which were used to dose the HCV replicon cells in 96-well format. The final DMSO concentration was 1%. The HCV replicon cells were incubated at 37° C. for 72 hours. At 72 hours, cells were processed when the cells are still subconfluent. Compounds that reduce the LUC signal are determined by Bright-Glo Luciferase Assay (Promega, Madison, Wis.). % Inhibition was determined for each compound concentration in relation to the control cells (untreated HCV replicon) to calculate the EC50.
Compounds of Formula (I) are active in the replicon assay. The antiviral activity of exemplary compounds is shown in Table 5, where ‘A’ indicates an EC50<1 μM, ‘B’ indicates an EC50≧1 μM and <10 μM, and ‘C’ indicates an EC50≧10 μM and <100 μM.

Structure (SMILES) | EC50 (Hepatitis C virus, Huh-7, 72 h) [µM] | also measured
COP1(=S)OC[C@H]2O[C@@H](n3ccc(=O)[nH]c3=O)[C@](C)(O)[C@@H]2O1 (some centres unmarked) [Compound 10a, 1-(7-Hydroxy-2-methoxy-7-methyl-2-thioxo-tetrahydro-2l5-furo[3,2-d][1,3,2]dioxaphosphinin-6-yl)-1H-pyrimidine-2,4-dione] | 10 to 100 | –
COP1(=O)O[C@H]2[C@@H](O)[C@H](n3cnc4c(N)ncnc43)O[C@@H]2[C@H](C)O1 (some centres unmarked) [Compound 8a] | – | EC50 (Hepatitis C virus, HCV replicon cells (Huh-7), 72 hours incubation, LUC signal, read-out: EC50): 10 to 100 µM
CC(C)OP1(=S)OC[C@H]2O[C@@H](n3ccc(=O)[nH]c3=O)[C@](C)(O)[C@@H]2O1 (some centres unmarked) [Compound 11a, 1-(7-Hydroxy-2-isopropoxy-7-methyl-2-thioxo-tetrahydro-2l5-furo[3,2-d][1,3,2]dioxaphosphinin-6-yl)-1H-pyrimidine-2,4-dione] | 1 to 10 | –
COc1nc(N)nc2c1ncn2[C@@H]1O[C@@H]2COP(=S)(OC)O[C@H]2[C@@]1(C)O (some centres unmarked) [Compound 1a, (Rp/Sp) 2′-C-methyl-6-O-methyl-guanosine-3′,5′-cyclic-O-methyl phosphorothioate] | < 1 | –
COc1nc(N)nc2c1ncn2[C@@H]1O[C@@H]2COP(=O)(SCOC(=O)C(C)(C)C)O[C@H]2[C@@]1(C)O (some centres unmarked) [Compound 12a, 2′-C,O^6-Dimethylguanosine 3′,5′-cyclic O-pivaloyloxymethyl phosphorothioate] | – | EC50 (HCV replicon cells (Huh-7), 72 hours incubation, LUC signal, read-out: EC50): < 1 µM
